Data reported in patent US20170327598A1, “SINGLE DOMAIN ANTIBODIES DIRECTED AGAINST INTRACELLULAR ANTIGENS” (SINGH MOLECULAR MEDICINE, LLC, priority 2014, published 2017).
“And” between values parts separate entries of the source, which are not always exact repeats. Identical values can stand only once. Like-named read-outs stand apart in the source and are kept apart here.

How the values were obtained:
[1] = test system: human STAT3; assay: Biacore 3000 protein binding, STAT3 ligand immobilized (Example 22); details: sdAb as analyte
[2] = test system: PANC-1 human pancreatic cancer xenograft
[3] = test system: MCF-7 human breast tumor xenograft; details: for Tumor Volume TV (mm^3), group Mean / Tumor caliper measurement W (mm), individual animal / Tumor Volume TV (mm^3), individual animal / Tumor caliper measurement L (mm), individual animal: 1 mg/kg ip tid × 14
[4] = test system: MCF-7 cells; assay: MTT proliferation assay, MCF-7; format: cell-based, human; details: MCF-7, 72 hours
[5] = test system: VEGF-A production in ARPE-19 cells; assay: VEGF-A ELISA in ARPE-19 retinal cells, Experiment 2;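 as to all read-outs here: confluent ARPE-19 cells in 96-well plates, VEGF-A in culture supernatant quantified by ELISA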; format: cell-based, human; details: 0.1 μg/well; for pg VEGF-A per mL: based on collecting 0.1 ml of supernatant; for Mean (pg VEGF-A per mL): mean of Adj. Result, Wells 1-3; for Mean (pg VEGF-A per μg protein): mean of Wells 1-3; for Mean (pg VEGF-A per μg protein) / % Control: Experiment 2; for % Control: normalized for protein; for Mean Result (pg VEGF-A per mL) / pg VEGF-A per μg protein / Adj. Result (pg VEGF-A per mL): per well; for Adj. Result (pg VEGF-A per mL): adjusted for dilution; for Result (pg VEGF-A per mL): single reads
[6] = 1 mg/kg ip tid × 14 first Day 2 doses

Which results are given for “Anti-STAT3 VHH13: anti-STAT3 single domain antibody, SEQ ID NO:3; bacterially produced form referred to as SBT-100”?
binding to STAT3 ligand [1]: bound; growth inhibition ([2]; 500 μg/kg bw IP QDx14): no significant growth inhibition; tumor doubling time ([2]; 500 μg/kg bw IP QDx14): 23.02 days; mean tumor size (±SE) ([2]; treatment group, day 14 of dosing): 318.74 ± 29.76; % TGD [3, 6]: 42%; Median TTE [3, 6]: 32.9; T-C [3, 6]: 9.7; Tumor Volume TV (mm^3), group Mean ([3]; Day 1): 117 mm^3; Tumor caliper measurement W (mm), individual animal ([3]; Day 1): 6 mm; Tumor Volume TV (mm^3), individual animal ([3]; Day 1, 1 mg/kg): 108 mm^3 (2×) and 126 mm^3 (2×); Tumor caliper measurement L (mm), individual animal ([3]; Day 1, 1 mg/kg): 6 mm (2×) and 7 mm (2×); Tumor Volume TV (mm^3), group Mean ([3]; Day 4): 155.3 mm^3; Tumor Volume TV (mm^3), individual animal ([3]; Day 4, 1 mg/kg): 196 mm^3 and 126 mm^3 and 144 mm^3; Tumor caliper measurement L (mm), individual animal ([3]; Day 4, 1 mg/kg): 8 mm (2×) and 7 mm; Tumor caliper measurement W (mm), individual animal ([3]; Day 4, 1 mg/kg): 7 mm and 6 mm (2×); Tumor Volume TV (mm^3), group Mean ([3]; Day 8): 253.7 mm^3; Tumor Volume TV (mm^3), individual animal ([3]; Day 8, 1 mg/kg): 320 mm^3 and 196 mm^3 and 245 mm^3; Tumor caliper measurement L (mm), individual animal ([3]; Day 8, 1 mg/kg): 8 mm; Tumor caliper measurement W (mm), individual animal ([3]; Day 8, 1 mg/kg): 7 mm; Tumor Volume TV (mm^3), group Mean ([3]; Day 11): 307 mm^3; Tumor Volume TV (mm^3), individual animal ([3]; Day 11, 1 mg/kg): 405 mm^3 and 196 mm^3 and 320 mm^3; Tumor caliper measurement L (mm), individual animal ([3]; Day 11, 1 mg/kg): 8 mm; Tumor caliper measurement W (mm), individual animal ([3]; Day 11, 1 mg/kg): 9 mm and 7 mm; Tumor Volume TV (mm^3), group Mean ([3]; Day 15): 346.5 mm^3; Tumor Volume TV (mm^3), individual animal ([3]; Day 15, 1 mg/kg): 405 mm^3 and 288 mm^3; Tumor caliper measurement L (mm), individual animal ([3]; Day 15, 1 mg/kg): 9 mm; Tumor caliper measurement W (mm), individual animal ([3]; Day 15, 1 mg/kg): 9 mm; Tumor Volume TV (mm^3), group Mean ([3]; Day 18): 346.5 mm^3; Tumor Volume TV (mm^3), individual animal ([3]; Day 18, 1 mg/kg): 405 mm^3 and 288 mm^3; Tumor caliper measurement L (mm), individual animal ([3]; Day 18, 1 mg/kg): 9 mm; Tumor caliper measurement W (mm), individual animal ([3]; Day 18, 1 mg/kg): 9 mm; Tumor Volume TV (mm^3), group Mean ([3]; Day 22): 477.5 mm^3; Tumor Volume TV (mm^3), individual animal ([3]; Day 22, 1 mg/kg): 550 mm^3 and 405 mm^3; Tumor caliper measurement L (mm), individual animal ([3]; Day 22, 1 mg/kg): 11 mm; Tumor caliper measurement W (mm), individual animal ([3]; Day 22, 1 mg/kg): 9 mm; Tumor Volume TV (mm^3), group Mean ([3]; Day 25): 634.5 mm^3; Tumor Volume TV (mm^3), individual animal ([3]; Day 25, 1 mg/kg): 864 mm^3 and 405 mm^3; Tumor caliper measurement L (mm), individual animal ([3]; Day 25, 1 mg/kg): 12 mm; Tumor caliper measurement W (mm), individual animal ([3]; Day 25, 1 mg/kg): 12 mm and 9 mm; Tumor Volume TV (mm^3), group Mean ([3]; Day 29): 799.3 mm^3; Tumor Volume TV (mm^3), individual animal ([3]; Day 29, 1 mg/kg): 1099 mm^3 and 500 mm^3; Tumor caliper measurement L (mm), individual animal ([3]; Day 29, 1 mg/kg): 13 mm; Tumor caliper measurement W (mm), individual animal ([3]; Day 29, 1 mg/kg): 13 mm; Tumor Volume TV (mm^3), group Mean ([3]; Day 32): 500 mm^3; Tumor Volume TV (mm^3), individual animal ([3]; Day 32): 500 mm^3; Tumor Volume TV (mm^3), group Mean ([3]; Day 36): 864 mm^3; Tumor Volume TV (mm^3), individual animal ([3]; Day 36): 864 mm^3; Tumor caliper measurement L (mm), individual animal ([3]; Day 36): 12 mm; Tumor caliper measurement W (mm), individual animal ([3]; Day 36): 12 mm; Tumor Volume TV (mm^3), group Mean ([3]; Day 39): 1098.5 mm^3; Tumor Volume TV (mm^3), individual animal ([3]; Day 39): 1099 mm^3; Tumor caliper measurement L (mm), individual animal ([3]; Day 39): 13 mm; Tumor caliper measurement W (mm), individual animal ([3]; Day 39): 13 mm; Mean Abs ([4]; 0.39 μg/ml): 0.818; Mean Abs ([4]; 3.13 μg/ml): 0.689; Mean Abs ([4]; 6.25 μg/ml): 0.435; % Inhibition ([4]; 25 μg/ml): 62.1%; Mean Abs ([4]; 25 μg/ml): 0.212; % Inhibition ([4]; 50 μg/ml): 89.9%; Mean Abs ([4]; 50 μg/ml): 0.057; % Inhibition ([4]; 100 μg/ml): 93.2%; Mean Abs ([4]; 100 μg/ml): 0.038; % Inhibition ([4]; 200 μg/ml): 92.9%; Mean Abs ([4]; 200 μg/ml): 0.040; % Negative Control ([5]; 12 Hr): 123.8%; pg VEGF-A per mL ([5]; 12 Hr): 18.6 pg VEGF-A per mL and 14.3 pg VEGF-A per mL and 15 pg VEGF-A per mL; Mean (pg VEGF-A per mL) ([5]; 12 Hr): 159.7 pg VEGF-A per mL; Mean (pg VEGF-A per μg protein) ([5]; 12 Hr): 2.540 pg VEGF-A per μg protein; % Control ([5]; 12 Hr): 134.4%; Mean Result (pg VEGF-A per mL) ([5]; 12 Hr): 37.2 pg VEGF-A per mL and 28.54 pg VEGF-A per mL and 30.06 pg VEGF-A per mL; pg VEGF-A per μg protein ([5]; 12 Hr): 3 pg VEGF-A per μg protein and 2.1 pg VEGF-A per μg protein and 2.4 pg VEGF-A per μg protein; Adj. Result (pg VEGF-A per mL) ([5]; 12 Hr): 186.02 pg VEGF-A per mL and 142.71 pg VEGF-A per mL and 150.31 pg VEGF-A per mL; Result (pg VEGF-A per mL) ([5]; 12 Hr): 30.38 pg VEGF-A per mL and 36.84 pg VEGF-A per mL and 37.57 pg VEGF-A per mL and 29.44 pg VEGF-A per mL and 27.64 pg VEGF-A per mL and 29.74 pg VEGF-A per mL; % Negative Control ([5]; 24 Hr): 93.6%; pg VEGF-A per mL ([5]; 24 Hr): 27.9 pg VEGF-A per mL and 28 pg VEGF-A per mL and 30.4 pg VEGF-A per mL; Mean (pg VEGF-A per mL) ([5]; 24 Hr): 287.4 pg VEGF-A per mL; Mean (pg VEGF-A per μg protein) ([5]; 24 Hr): 4.152 pg VEGF-A per μg protein; % Control ([5]; 24 Hr): 94.1%; Mean Result (pg VEGF-A per mL) ([5]; 24 Hr): 55.73 pg VEGF-A per mL and 56.02 pg VEGF-A per mL and 60.72 pg VEGF-A per mL; pg VEGF-A per μg protein ([5]; 24 Hr): 3.8 pg VEGF-A per μg protein and 4.0 pg VEGF-A per μg protein and 4.7 pg VEGF-A per μg protein; Adj. Result (pg VEGF-A per mL) ([5]; 24 Hr): 278.66 pg VEGF-A per mL and 280.09 pg VEGF-A per mL and 303.58 pg VEGF-A per mL; Result (pg VEGF-A per mL) ([5]; 24 Hr): 58.86 pg VEGF-A per mL and 52.60 pg VEGF-A per mL and 59.52 pg VEGF-A per mL and 52.51 pg VEGF-A per mL and 64.54 pg VEGF-A per mL and 56.89 pg VEGF-A per mL; % Negative Control ([5]; 48 Hr): 100%; pg VEGF-A per mL ([5]; 48 Hr): 94.7 pg VEGF-A per mL and 85.1 pg VEGF-A per mL and 110 pg VEGF-A per mL
